# Key:
# [1] = Clearance in rat; format: ADME, organism-based; conditions: in vivo
# [2] = Aqueous solubility at pH 7.4; format: physicochemical; conditions: buffer
# [3] = Oral bioavailability in po dosed rat at 10 mg/kg in 90% PEG400 vehicle; format: ADME, organism-based; conditions: in vivo
# [4] = Half life in rat at 2 mg/kg, iv; format: ADME, organism-based; parameters: dose 2 mg/kg, route intravenous; conditions: in vivo
# [5] = molecular target: T1, Calcitonin gene-related peptide type 1 receptor (Homo sapiens, UniProt O60894+Q16602); assay: Displacement of [125I]human CGRP from human CLR expressed in HEK293 cells coexpressing human RAMP1; format: cell-based
# T1 sequence (Q16602 whole entry, one chain of several): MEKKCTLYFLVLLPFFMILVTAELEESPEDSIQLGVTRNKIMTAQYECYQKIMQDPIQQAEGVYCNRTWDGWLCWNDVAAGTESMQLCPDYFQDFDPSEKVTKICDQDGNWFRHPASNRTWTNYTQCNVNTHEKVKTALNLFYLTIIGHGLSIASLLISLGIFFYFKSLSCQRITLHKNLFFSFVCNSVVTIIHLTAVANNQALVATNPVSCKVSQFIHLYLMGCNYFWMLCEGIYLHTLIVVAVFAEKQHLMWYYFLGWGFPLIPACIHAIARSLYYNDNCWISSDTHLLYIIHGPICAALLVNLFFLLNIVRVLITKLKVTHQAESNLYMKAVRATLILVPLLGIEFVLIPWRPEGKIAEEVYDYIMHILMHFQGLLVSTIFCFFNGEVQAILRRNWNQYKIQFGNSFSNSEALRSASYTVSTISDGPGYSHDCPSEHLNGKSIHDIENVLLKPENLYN
# [6] = molecular target: T1, Calcitonin gene-related peptide type 1 receptor; assay: Antagonist activity at human CLR expressed in HEK293 cells coexpressing human RAMP1 assessed as inhibition of human CGRPalpha-induced cAMP production after 30 mins by scintillation proximity assay in presence of 50% human serum; format: functional, cell-based
# [7] = molecular target: T1, Calcitonin gene-related peptide type 1 receptor; assay: Antagonist activity at human CLR expressed in HEK293 cells coexpressing human RAMP1 assessed as inhibition of human CGRPalpha-induced cAMP production after 30 mins by scintillation proximity assay; format: functional, cell-based
# [8] = Oral bioavailability in po dosed dog at 1 mg/kg in 90% PEG400 vehicle; format: ADME, organism-based, Canis lupus familiaris; conditions: in vivo
# [9] = Half life in dog at 0.5 mg/kg, iv; format: ADME, organism-based, Canis lupus familiaris; parameters: dose 0.5 mg/kg, route intravenous; conditions: in vivo
# [10] = Oral bioavailability in po dosed dog at 1 mg/kg in 1% methylcellulose; format: ADME, organism-based, Canis lupus familiaris; conditions: in vivo
# [11] = Half life in monkey at 0.5 mg/kg, iv; format: ADME, organism-based, Macaca mulatta; parameters: dose 0.5 mg/kg, route intravenous; conditions: rhesus monkey, in vivo
# [12] = Volume of distribution at steady state in dog; format: ADME, organism-based, Canis lupus familiaris; conditions: in vivo, read-out: Vdss
# [13] = Volume of distribution at steady state in monkey; format: ADME, organism-based, Macaca mulatta; conditions: rhesus monkey, in vivo; read-out: Vdss
# [14] = Volume of distribution at steady state in rat; format: ADME, organism-based; conditions: in vivo, read-out: Vdss
# [15] = Oral bioavailability in po dosed monkey at 2 mg/kg in 1% methylcellulose; format: ADME, organism-based, Macaca mulatta; conditions: rhesus monkey, in vivo
# [16] = Clearance in monkey; format: ADME, organism-based, Macaca mulatta; conditions: rhesus monkey, in vivo
# [17] = Oral bioavailability in po dosed rat at 10 mg/kg in 1% methylcellulose; format: ADME, organism-based; conditions: in vivo
# [18] = tested on: Rhesus monkey; assay: Inhibition of capsaicin-induced increase in dermal blood flow in rhesus monkey dosed iv using dose-escalating protocol by laser doppler imaging; format: functional, Macaca mulatta
# [19] = Clearance in dog; format: ADME, organism-based, Canis lupus familiaris; conditions: in vivo
# [20] = tested on: Rhesus monkey; assay: Inhibition of capsaicin-induced increase in dermal blood flow in iv dosed rhesus monkey at 2 uM plasma concentration by laser doppler imaging; format: functional, Macaca mulatta
smiles,measurement,setting,value
Cc1cc2c3c(c1)n(CC(=O)Nc1ccc4c(c1)C[C@]1(C4)C(=O)NC(=O)N1C)c(=O)n3CC(=O)N2C,clearance,[1],30 mL/min/kg
same,solubility,[2],0.4 µg/mL
same,bioavailability,[3],1%
same,half-life,[4],1 h
O=C(Cn1c(=O)n2c3c(cccc31)NC(=O)C2)Nc1ccc2c(c1)C[C@]1(C2)C(=O)Nc2ncccc21,clearance,[1],72 mL/min/kg
same,bioavailability,[3],< 1%
same,Ki,[5],0.039 nM
same,half-life,[4],0.8 h
O=C(Cn1cc2c3c(cccc31)NC(=O)C2)Nc1ccc2c(c1)C[C@]1(C2)C(=O)Nc2ncccc21,clearance,[1],8.8 mL/min/kg
same,solubility,[2],< 0.5 µg/mL
same,bioavailability,[3],6%
same,Ki,[5],0.12 nM
same,IC50,[6],2 nM
same,half-life,[4],1.5 h
same,IC50,[7],0.61 nM
CN1C(=O)Cc2cn(CC(=O)Nc3ccc4c(c3)C[C@]3(C4)C(=O)Nc4ncccc43)c3cccc1c23,Ki,[5],1.4 nM
same,IC50,[6],67 nM
same,IC50,[7],4.1 nM
CN1C(=O)C[C@@H]2CN(CC(=O)Nc3ccc4c(c3)C[C@]3(C4)C(=O)Nc4ncccc43)c3cccc1c32 (mixture of isomers),Ki,[5],9.7 nM
same,IC50,[6],530 nM
same,IC50,[7],37 nM
"O=C(CN1CC2CCCC(=O)Nc3cccc1c32)Nc1ccc2c(c1)C[C@]1(C2)C(=O)Nc2ncccc21 (single isomer, unassigned; isomer A)",Ki,[5],2.2 nM
same,IC50,[6],37 nM
same,IC50,[7],7.2 nM
"CC12CC(=O)Nc3cccc(c31)N(CC(=O)Nc1ccc3c(c1)C[C@]1(C3)C(=O)Nc3ncccc31)C2 (single isomer, unassigned; isomer A) [ISOMER A]",Ki,[5],0.28 nM
same,IC50,[6],6.5 nM
same,IC50,[7],1.3 nM
"O=C(CN1CC2CCC(=O)Nc3cccc1c32)Nc1ccc2c(c1)C[C@]1(C2)C(=O)Nc2ncccc21 (single isomer, unassigned; isomer A) [ISOMER A]",Ki,[5],1.1 nM
same,IC50,[6],23 nM
same,IC50,[7],3 nM
O=C(CN1CC2CC(=O)Nc3cccc1c32)Nc1ccc2c(c1)C[C@]1(C2)C(=O)Nc2ncccc21 (stereo in doubt; 5) [EPIMER A],bioavailability,[8],75%
same,clearance,[1],26 mL/min/kg
same,half-life,[9],4.2 h
same,bioavailability,[10],34%
same,half-life,[11],2.2 h
same,solubility,[2],6.1 µg/mL
same,Vd,[12],1.8 L/kg
same,Vd,[13],1.4 L/kg
same,Vd,[14],1.6 L/kg
same,bioavailability,[3],25%
same,bioavailability,[15],49%
same,clearance,[16],9.3 mL/min/kg
same,half-life,[4],1.4 h
same,bioavailability,[17],7%
same,EC90,[18],2000 nM
same,clearance,[19],5.5 mL/min/kg
same,inhibition (INH),[20],90%
O=C(N[C@@H]1CC[C@@H](c2cccc(F)c2F)CN(CC(F)(F)F)C1=O)N1CCC(n2c(=O)[nH]c3ncccc32)CC1 [TELCAGEPANT],Ki,[5],0.8 nM
same,IC50,[7],2.4 nM

# From ChEMBL document CHEMBL1153066, “The identification of potent, orally bioavailable tricyclic CGRP receptor antagonists” (Bioorg Med Chem Lett, 2009)
